According to PubChem BioAssay (NCI):
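The compound was tested at five concentrations on cells cultured in 96-well plates, with a 48-hour exposure period. GI50 is the concentration that inhibits growth by half. Definition used: TGI = concentration required for complete inhibition of growth.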

Columns and labels:
Experiment in all cases: NCI anticancer screen, dose series, 48 h
[1] = tested on: 786-0 renal
[2] = tested on: A498 renal
[3] = tested on: A549 NSCLC
[4] = tested on: ACHN renal
[5] = tested on: BT-549 breast
[6] = tested on: CAKI-1 renal
[7] = tested on: CCRF-CEM leukemia
[8] = tested on: COLO 205 colon
[9] = tested on: DU-145 prostate
[10] = tested on: EKVX NSCLC
[11] = tested on: HCC-2998 colon
[12] = tested on: HCT-116 colon
[13] = tested on: HCT-15 colon
[14] = tested on: HL-60(TB) leukemia
[15] = tested on: HOP-62 NSCLC
[16] = tested on: HOP-92 NSCLC
[17] = tested on: HS 578T breast
[18] = tested on: HT29 colon
[19] = tested on: IGROV1 ovarian
[20] = tested on: K-562 leukemia
[21] = tested on: KM12 colon
[22] = tested on: LOX IMVI melanoma
[23] = tested on: M14 melanoma
[24] = tested on: MALME-3M melanoma
[25] = tested on: MCF7 breast
[26] = tested on: MDA-MB-231 breast
[27] = tested on: MDA-MB-435
[28] = tested on: MOLT-4 leukemia
[29] = tested on: NCI-H226 lung
[30] = tested on: NCI-H23 lung
[31] = tested on: NCI-H460 lung
[32] = tested on: NCI-H522 lung
[33] = tested on: NCI/ADR-RES ovarian
[34] = tested on: OVCAR-3 ovarian
[35] = tested on: OVCAR-4 ovarian
[36] = tested on: OVCAR-5 ovarian
[37] = tested on: OVCAR-8 ovarian
[38] = tested on: PC-3 prostate
[39] = tested on: RPMI-8226 leukemia
[40] = tested on: RXF 393 renal
[41] = tested on: SF-268 CNS
[42] = tested on: SF-295 CNS
[43] = tested on: SF-539 CNS
[44] = tested on: SK-MEL-2 melanoma
[45] = tested on: SK-MEL-28 melanoma
[46] = tested on: SK-MEL-5 melanoma
[47] = tested on: SK-OV-3 ovarian
[48] = tested on: SN12C renal
[49] = tested on: SNB-19 CNS
[50] = tested on: SNB-75 CNS
[51] = tested on: SR leukemia
[52] = tested on: SW-620 colon
[53] = tested on: T-47D breast
[54] = tested on: TK-10 renal
[55] = tested on: U251 CNS
[56] = tested on: UACC-257 melanoma
[57] = tested on: UACC-62 melanoma
[58] = tested on: UO-31 renal

Work on CN1C(=O)N(C)C2C1NN=c1s/c(=C\c3ccc(F)cc3)c(=O)n12 (stereo not given) yielded a GI50 [1] of 7550 nM, a TGI [1] greater than 100000 nM and a GI50 [2] of 1390 nM. The TGI [2] was 6770 nM, the GI50 [3] was 4880 nM and the TGI [3] was greater than 100000 nM. The GI50 [4] was 4390 nM, the TGI [4] was greater than 100000 nM and the GI50 [5] was 13100 nM. The TGI [5] was greater than 100000 nM, the GI50 [6] was 1680 nM and the TGI [6] was greater than 100000 nM. It also gave a GI50 [7] of 1910 nM, a TGI [7] greater than 100000 nM and a GI50 [8] of 2510 nM. For the same compound, the TGI [8] was greater than 100000 nM, the GI50 [9] was 3220 nM and the TGI [9] was greater than 100000 nM. It also gave a GI50 [10] of 4020 nM, a TGI [10] greater than 100000 nM and a GI50 [11] of 13400 nM. The TGI [11] was greater than 100000 nM, the GI50 [12] was 795 nM and the TGI [12] was greater than 100000 nM. For the same compound, the GI50 [13] was 915 nM, the TGI [13] was greater than 100000 nM and the GI50 [14] was 1630 nM. It also gave a TGI [14] of 4530 nM, a GI50 [15] of 3480 nM and a TGI [15] greater than 100000 nM. For the same compound, the GI50 [16] was 8490 nM, the TGI [16] was greater than 100000 nM and the GI50 [17] was 2080 nM. The TGI [17] was 7310 nM, the GI50 [18] was 951 nM and the TGI [18] was greater than 100000 nM. It also gave a GI50 [19] of 3210 nM, a TGI [19] greater than 100000 nM and a GI50 [20] of 540 nM. It also gave a TGI [20] greater than 100000 nM, a GI50 [21] of 1650 nM and a TGI [21] greater than 100000 nM. For the same compound, the GI50 [22] was 6010 nM, the TGI [22] was greater than 100000 nM and the GI50 [23] was 2240 nM. It also gave a TGI [23] greater than 100000 nM, a GI50 [24] of 3170 nM and a TGI [24] greater than 100000 nM. It also gave a GI50 [25] of 673 nM, a TGI [25] greater than 100000 nM and a GI50 [26] of 4690 nM. For the same compound, the TGI [26] was greater than 100000 nM, the GI50 [27] was 361 nM and the TGI [27] was 1710 nM. For the same compound, the GI50 [28] was 3070 nM, the TGI [28] was greater than 100000 nM and the GI50 [29] was 8020 nM. For the same compound, the TGI [29] was greater than 100000 nM, the GI50 [30] was 4230 nM and the TGI [30] was greater than 100000 nM. For the same compound, the GI50 [31] was 2770 nM, the TGI [31] was greater than 100000 nM and the GI50 [32] was 2220 nM. For the same compound, the TGI [32] was greater than 100000 nM, the GI50 [33] was 1940 nM and the TGI [33] was greater than 100000 nM. The GI50 [34] was 1240 nM, the TGI [34] was 8090 nM and the GI50 [35] was 3050 nM. For the same compound, the TGI [35] was greater than 100000 nM, the GI50 [36] was 5440 nM and the TGI [36] was greater than 100000 nM. The GI50 [37] was 3780 nM, the TGI [37] was greater than 100000 nM and the GI50 [38] was 2330 nM. For the same compound, the TGI [38] was greater than 100000 nM, the GI50 [39] was 2560 nM and the TGI [39] was 8910 nM. It also gave a GI50 [40] of 785 nM, a TGI [40] of 6000 nM and a GI50 [41] of 4620 nM. For the same compound, the TGI [41] was greater than 100000 nM, the GI50 [42] was 2450 nM and the TGI [42] was greater than 100000 nM. For the same compound, the GI50 [43] was 2100 nM, the TGI [43] was 5720 nM and the GI50 [44] was 4130 nM. It also gave a TGI [44] greater than 100000 nM, a GI50 [45] of 7310 nM and a TGI [45] greater than 100000 nM. The GI50 [46] was 995 nM, the TGI [46] was 12000 nM and the GI50 [47] was 3570 nM. For the same compound, the TGI [47] was greater than 100000 nM, the GI50 [48] was 6970 nM and the TGI [48] was greater than 100000 nM. It also gave a GI50 [49] of 5570 nM, a TGI [49] greater than 100000 nM and a GI50 [50] of 1050 nM. It also gave a TGI [50] of 5220 nM, a GI50 [51] of 374 nM and a TGI [51] of 20000 nM. The GI50 [52] was 1860 nM, the TGI [52] was greater than 100000 nM and the GI50 [53] was 1250 nM. The TGI [53] was greater than 100000 nM, the GI50 [54] was 6060 nM and the TGI [54] was greater than 100000 nM. It also gave a GI50 [55] of 3060 nM, a TGI [55] greater than 100000 nM and a GI50 [56] of 3020 nM. The TGI [56] was greater than 100000 nM, the GI50 [57] was 3610 nM and the TGI [57] was greater than 100000 nM. For the same compound, the GI50 [58] was 3900 nM and the TGI [58] was greater than 100000 nM.

In the case of CNCCn1c(=O)c2cc(OC)c(OC)cc2c2ccc3cc4c(cc3c21)OCO4, the GI50 [1] is reported as 109 nM, the TGI [1] is reported as 537 nM and the GI50 [2] is reported as 126 nM. It also gave a TGI [2] of 609 nM, a GI50 [3] of 116 nM and a TGI [3] of 638 nM. For the same compound, the GI50 [4] was 82.2 nM, the TGI [4] was 368 nM and the GI50 [5] was 263 nM. The TGI [5] was 4370 nM, the GI50 [6] was 71.8 nM and the TGI [6] was 588 nM. For the same compound, the GI50 [7] was 20.3 nM, the TGI [7] was 952 nM and the GI50 [8] was 75.3 nM. The TGI [8] was 735 nM, the GI50 [9] was 122 nM and the TGI [9] was 2510 nM. It also gave a GI50 [10] of 266 nM, a TGI [10] of 5010 nM and a GI50 [11] of 167 nM. It also gave a TGI [11] of 968 nM, a GI50 [13] of 175 nM and a TGI [13] of 3060 nM. For the same compound, the GI50 [14] was 173 nM, the TGI [14] was 864 nM and the GI50 [15] was 70.5 nM. For the same compound, the TGI [15] was 1080 nM, the GI50 [16] was 160 nM and the TGI [16] was 2130 nM. The GI50 [17] was 835 nM, the TGI [17] was 8390 nM and the GI50 [18] was 72 nM. The TGI [18] was 1040 nM, the GI50 [19] was 142 nM and the TGI [19] was 2290 nM. For the same compound, the GI50 [20] was 55.2 nM, the TGI [20] was 5190 nM and the GI50 [21] was 219 nM. It also gave a TGI [21] of 4980 nM, a GI50 [22] of 57.7 nM and a TGI [22] of 173 nM. It also gave a GI50 [23] of 78.6 nM, a TGI [23] of 399 nM and a GI50 [24] of 172 nM. For the same compound, the TGI [24] was 812 nM, the GI50 [25] was 29.6 nM and the TGI [25] was 4430 nM. The GI50 [26] was 335 nM, the TGI [26] was 3660 nM and the GI50 [27] was 131 nM. It also gave a TGI [27] of 708 nM, a GI50 [28] of 22.7 nM and a TGI [28] of 211 nM. For the same compound, the GI50 [29] was 192 nM, the TGI [29] was 1030 nM and the GI50 [30] was 112 nM. It also gave a TGI [30] of 556 nM, a GI50 [31] of 22.6 nM and a TGI [31] of 558 nM. The GI50 [32] was 54.8 nM, the TGI [32] was 554 nM and the GI50 [33] was 217 nM. The TGI [33] was 3190 nM, the GI50 [34] was 162 nM and the TGI [34] was 1250 nM. For the same compound, the GI50 [35] was 175 nM, the TGI [35] was 4260 nM and the GI50 [36] was 195 nM. The TGI [36] was 2600 nM, the GI50 [37] was 169 nM and the TGI [37] was 6370 nM. It also gave a GI50 [38] of 109 nM, a TGI [38] of 6230 nM and a GI50 [39] of 84.2 nM. For the same compound, the TGI [39] was 376 nM, the GI50 [40] was 168 nM and the TGI [40] was 727 nM. It also gave a GI50 [41] of 88.8 nM, a TGI [41] of 5520 nM and a GI50 [42] of 34.6 nM. It also gave a TGI [42] of 359 nM, a GI50 [43] of 133 nM and a TGI [43] of 424 nM. The GI50 [44] was 533 nM, the TGI [44] was 1530 nM and the GI50 [45] was 555 nM. It also gave a TGI [45] of 2690 nM, a GI50 [46] of 86.2 nM and a TGI [46] of 199 nM. The GI50 [47] was 157 nM, the TGI [47] was 1320 nM and the GI50 [48] was 173 nM. It also gave a TGI [48] of 3970 nM, a GI50 [49] of 116 nM and a TGI [49] of 5610 nM. For the same compound, the GI50 [50] was 127 nM, the TGI [50] was 5530 nM and the GI50 [51] was 17.3 nM. It also gave a TGI [51] of 972 nM, a GI50 [52] of 57.2 nM and a TGI [52] of 3090 nM. It also gave a GI50 [53] of 83.8 nM, a TGI [53] of 3430 nM and a GI50 [54] of 513 nM. For the same compound, the TGI [54] was 1560 nM, the GI50 [55] was 49.5 nM and the TGI [55] was 1190 nM. The GI50 [56] was 160 nM, the TGI [56] was 854 nM and the GI50 [57] was 46.5 nM. The TGI [57] was 145 nM, the GI50 [58] was 123 nM and the TGI [58] was 543 nM.
